Experimental data: ChEMBL document CHEMBL1201862, “PubChem BioAssay data set” (2004)
Active and inactive are the calls of the source.

Columns and labels:
Cytochrome P450 3A4 = Cytochrome P450 3A4 (Homo sapiens, UniProt P08684);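 also: CYP3A4 tested as one member of a cytochrome P450 panel screen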
[1] = biological target: FAD-linked sulfhydryl oxidase ALR (Homo sapiens, UniProt P55789); assay: inhibitors of human ALR sulfhydryl oxidase, dose response, biochemical, H2O2 detection, luminescence, cherry-pick (AID 493248)
Chain of FAD-linked sulfhydryl oxidase ALR (P55789 whole entry): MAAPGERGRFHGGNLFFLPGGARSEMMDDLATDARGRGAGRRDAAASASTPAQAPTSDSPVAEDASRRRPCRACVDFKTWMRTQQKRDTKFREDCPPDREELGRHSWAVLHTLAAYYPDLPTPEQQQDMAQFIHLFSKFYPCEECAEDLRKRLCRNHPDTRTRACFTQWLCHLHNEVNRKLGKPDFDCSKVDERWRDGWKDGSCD

Cytochrome P450 2C9 = Cytochrome P450 2C9 (Homo sapiens, UniProt P11712)
Chain of Cytochrome P450 2C9 (P11712 whole entry): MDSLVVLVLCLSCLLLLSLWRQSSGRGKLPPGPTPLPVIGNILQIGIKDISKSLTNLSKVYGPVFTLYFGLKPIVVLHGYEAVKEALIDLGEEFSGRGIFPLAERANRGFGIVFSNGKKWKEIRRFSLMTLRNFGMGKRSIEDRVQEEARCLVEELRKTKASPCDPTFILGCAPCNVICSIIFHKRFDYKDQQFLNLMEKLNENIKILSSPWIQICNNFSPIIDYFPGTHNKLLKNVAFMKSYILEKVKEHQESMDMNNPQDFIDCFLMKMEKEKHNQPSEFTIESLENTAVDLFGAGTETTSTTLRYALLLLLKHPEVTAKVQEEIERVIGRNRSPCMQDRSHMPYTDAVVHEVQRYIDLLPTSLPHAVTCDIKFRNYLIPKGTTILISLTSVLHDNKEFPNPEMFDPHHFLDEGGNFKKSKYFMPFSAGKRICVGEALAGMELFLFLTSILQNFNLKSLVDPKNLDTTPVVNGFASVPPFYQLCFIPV

[2] = inhibitors of intracellular T. cruzi replication, confirmation, NIH3T3 host cells, beta-gal luminescence (AID 2044); type: functional, cell-based;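 also: intracellular parasites grown in NIH/3T3 mouse fibroblasts as host cells; luminescent beta-galactosidase reporter signal from transgenic T. cruzi replicating inside host cells; inhibitors lower the luminescence signal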
[3] = cytotoxicity toward NIH3T3 fibroblasts, dose response, counter-screen, cell-based, ATP luminescence, mouse fibroblasts (AID 2010); type: functional;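 also: cells exposed to compound for about 90 hours before reading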
Cytochrome P450 2D6 = Cytochrome P450 2D6 (Homo sapiens, UniProt P10635);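 also: CYP2D6 member of a cytochrome P450 panel assay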
Chain of Cytochrome P450 2D6 (P10635 whole entry): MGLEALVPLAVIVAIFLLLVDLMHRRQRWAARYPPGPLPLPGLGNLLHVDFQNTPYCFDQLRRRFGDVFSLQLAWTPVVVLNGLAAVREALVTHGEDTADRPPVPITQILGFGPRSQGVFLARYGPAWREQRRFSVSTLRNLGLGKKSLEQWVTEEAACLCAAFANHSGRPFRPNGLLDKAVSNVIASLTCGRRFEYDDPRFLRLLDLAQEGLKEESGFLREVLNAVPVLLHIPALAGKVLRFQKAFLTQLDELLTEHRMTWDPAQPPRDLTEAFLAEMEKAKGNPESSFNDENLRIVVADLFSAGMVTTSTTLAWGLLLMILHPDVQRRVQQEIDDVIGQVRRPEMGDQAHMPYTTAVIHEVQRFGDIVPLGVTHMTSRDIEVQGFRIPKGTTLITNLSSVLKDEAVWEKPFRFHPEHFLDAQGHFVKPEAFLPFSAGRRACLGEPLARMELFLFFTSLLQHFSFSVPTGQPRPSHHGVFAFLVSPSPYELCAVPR

[4] = Luminescence Cell-Based Dose Retest to Confirm Inhibitors of Cancer Stem Cells. [Related pubchem assays (depositor defined):AID2717, AID2721]; type: functional; details: Homo sapiens
Cytochrome P450 2C19 = Cytochrome P450 2C19 (Homo sapiens, UniProt P33261); assay: Cytochrome panel assay with activity outcomes. Panel member name: p450-cyp2c19 Compounds with AC50 equal or less than 10 uM are considered active; type: functional; details: read-out: AC50
Chain of Cytochrome P450 2C19 (P33261 whole entry): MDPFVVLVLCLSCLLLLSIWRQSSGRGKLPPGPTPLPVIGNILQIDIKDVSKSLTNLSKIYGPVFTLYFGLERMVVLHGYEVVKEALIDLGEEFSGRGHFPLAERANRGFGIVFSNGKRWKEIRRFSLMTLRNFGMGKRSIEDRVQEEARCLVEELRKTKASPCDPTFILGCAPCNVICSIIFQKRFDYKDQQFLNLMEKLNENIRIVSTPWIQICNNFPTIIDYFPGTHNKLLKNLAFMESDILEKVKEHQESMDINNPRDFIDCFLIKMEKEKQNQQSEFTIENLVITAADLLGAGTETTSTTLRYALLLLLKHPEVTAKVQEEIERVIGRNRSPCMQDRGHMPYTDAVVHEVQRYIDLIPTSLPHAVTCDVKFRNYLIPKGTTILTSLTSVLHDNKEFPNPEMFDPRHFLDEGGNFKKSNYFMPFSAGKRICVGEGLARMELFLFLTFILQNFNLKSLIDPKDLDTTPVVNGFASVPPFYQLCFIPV

[5] = biological target: T1, Rac GTPase-activating protein 1 (Homo sapiens, UniProt Q9H0H5); assay: MgcRacGAP GTPase-activating activity inhibitors, confirmation, biochemical, ADP Hunter fluorescence, primary and confirmatory (AID 624330); type: functional
T1 sequence (Q9H0H5 whole entry): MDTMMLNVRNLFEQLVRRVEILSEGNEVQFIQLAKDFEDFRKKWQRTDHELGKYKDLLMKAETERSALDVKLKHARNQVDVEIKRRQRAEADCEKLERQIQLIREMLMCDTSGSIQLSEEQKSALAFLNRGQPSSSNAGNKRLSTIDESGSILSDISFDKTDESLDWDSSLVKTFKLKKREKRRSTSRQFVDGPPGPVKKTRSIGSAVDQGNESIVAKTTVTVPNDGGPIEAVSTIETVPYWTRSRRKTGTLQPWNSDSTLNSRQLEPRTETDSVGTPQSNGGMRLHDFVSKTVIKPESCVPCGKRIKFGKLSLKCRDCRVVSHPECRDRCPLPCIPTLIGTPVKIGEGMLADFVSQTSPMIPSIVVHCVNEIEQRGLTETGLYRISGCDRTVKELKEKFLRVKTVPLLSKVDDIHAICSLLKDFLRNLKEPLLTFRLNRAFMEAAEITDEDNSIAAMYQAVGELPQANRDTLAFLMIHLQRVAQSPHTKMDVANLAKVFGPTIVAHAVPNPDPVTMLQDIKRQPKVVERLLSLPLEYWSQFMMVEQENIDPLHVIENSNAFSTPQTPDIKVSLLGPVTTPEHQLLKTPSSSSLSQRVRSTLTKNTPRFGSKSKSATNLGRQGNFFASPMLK

Cytochrome P450 1A2 = biological target: T2, Cytochrome P450 1A2 (Homo sapiens, UniProt P05177);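 also: PubChem cytochrome P450 panel assay, CYP1A2 panel member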
T2 sequence (P05177 whole entry): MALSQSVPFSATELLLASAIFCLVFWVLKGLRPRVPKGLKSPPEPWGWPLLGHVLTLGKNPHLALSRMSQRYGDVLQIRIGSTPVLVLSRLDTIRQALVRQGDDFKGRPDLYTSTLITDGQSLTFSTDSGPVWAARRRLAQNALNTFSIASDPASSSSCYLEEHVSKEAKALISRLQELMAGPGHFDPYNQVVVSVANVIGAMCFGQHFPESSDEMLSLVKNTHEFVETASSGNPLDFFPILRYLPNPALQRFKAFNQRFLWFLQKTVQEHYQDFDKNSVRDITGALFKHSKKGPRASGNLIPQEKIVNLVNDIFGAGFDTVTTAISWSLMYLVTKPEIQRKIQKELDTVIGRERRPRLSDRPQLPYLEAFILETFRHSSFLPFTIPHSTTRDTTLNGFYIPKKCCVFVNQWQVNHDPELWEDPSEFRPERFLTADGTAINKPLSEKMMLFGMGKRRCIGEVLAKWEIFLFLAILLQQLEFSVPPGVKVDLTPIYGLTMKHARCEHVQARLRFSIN

Streptococcus = assay: Group A Streptococcus viability loss, dose response, counter-screen for streptokinase expression inhibitor project, luminescence, BacTiterGlo (AID 1915); type: functional, organism-based;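 also: potency for reduction of bacterial viability or growth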
[6] = tested on: Streptococcus sp. 'group A'; assay: growth inhibition of control SK(-) GAS strain, dose response, counter-screen for streptokinase expression inhibitor project, luminescence, kanamycin, BacTiterGlo, confirmation (AID 1900); type: functional, organism-based
[7] = biological target: T3, RNA-binding protein pos-1 (Caenorhabditis elegans, UniProt G5EF15); assay: inhibitors of POS-1/mex-3 RNA binding, dose response, biochemical, fluorescence polarization (AID 1964);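 also: purified POS-1 fused to maltose binding protein made in E. coli; potency of compounds blocking POS-1 binding to fluorescent RNA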
T3 sequence (G5EF15 whole entry): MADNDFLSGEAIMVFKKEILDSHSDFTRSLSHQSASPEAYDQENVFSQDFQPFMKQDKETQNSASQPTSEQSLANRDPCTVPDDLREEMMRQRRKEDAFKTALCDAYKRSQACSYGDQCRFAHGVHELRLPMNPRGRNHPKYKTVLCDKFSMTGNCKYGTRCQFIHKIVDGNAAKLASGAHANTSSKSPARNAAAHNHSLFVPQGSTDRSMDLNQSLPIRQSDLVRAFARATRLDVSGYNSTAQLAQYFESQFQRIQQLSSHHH

[8] = biological target: T4, Zinc finger protein mex-5 (Caenorhabditis elegans, UniProt Q9XUB2); assay: MEX-5/TCR-2 RNA interaction inhibitors, dose response, biochemical, C. elegans, fluorescence polarization (AID 1960)
T4 sequence (Q9XUB2 whole entry): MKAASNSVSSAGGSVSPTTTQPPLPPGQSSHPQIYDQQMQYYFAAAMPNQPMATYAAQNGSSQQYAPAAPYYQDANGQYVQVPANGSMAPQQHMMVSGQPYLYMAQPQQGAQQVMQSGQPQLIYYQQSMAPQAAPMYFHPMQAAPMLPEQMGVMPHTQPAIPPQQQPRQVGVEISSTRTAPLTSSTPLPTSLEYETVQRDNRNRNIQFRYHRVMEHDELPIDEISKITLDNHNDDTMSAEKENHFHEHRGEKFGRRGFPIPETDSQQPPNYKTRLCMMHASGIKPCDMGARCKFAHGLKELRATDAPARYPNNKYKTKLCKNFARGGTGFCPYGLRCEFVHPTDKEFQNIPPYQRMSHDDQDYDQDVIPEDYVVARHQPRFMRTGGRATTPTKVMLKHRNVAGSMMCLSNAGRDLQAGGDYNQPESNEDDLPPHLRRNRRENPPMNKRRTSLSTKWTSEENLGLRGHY

Chain of Cytochrome P450 3A4 (P08684 whole entry): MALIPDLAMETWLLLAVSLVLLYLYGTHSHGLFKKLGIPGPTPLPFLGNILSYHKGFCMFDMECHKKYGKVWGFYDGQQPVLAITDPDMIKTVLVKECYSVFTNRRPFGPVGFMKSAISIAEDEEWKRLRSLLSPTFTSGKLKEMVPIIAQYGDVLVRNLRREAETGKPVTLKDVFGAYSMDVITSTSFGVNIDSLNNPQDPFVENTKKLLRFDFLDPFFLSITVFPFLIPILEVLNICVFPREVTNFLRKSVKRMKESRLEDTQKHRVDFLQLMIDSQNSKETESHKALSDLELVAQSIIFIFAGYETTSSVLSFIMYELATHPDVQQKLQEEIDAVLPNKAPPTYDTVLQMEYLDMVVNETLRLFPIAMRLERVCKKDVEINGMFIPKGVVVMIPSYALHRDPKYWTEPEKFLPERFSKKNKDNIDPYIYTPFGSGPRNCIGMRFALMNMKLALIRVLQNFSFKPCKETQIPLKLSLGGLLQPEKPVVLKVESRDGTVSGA

SMILES: CN1CCN(c2ncnc3ccc(-c4cccc(C#N)c4)cc23)CC1
- AC50 (Cytochrome P450 3A4): 25.1 µM (inconclusive)

SMILES: CCN(CCNC(=O)C1CCCN(S(=O)(=O)c2c[nH]cn2)C1)c1ccccc1 (configuration not stated)
- AC50 [1]: 0.394 µM (active)

SMILES: O=C(O)c1ccc(-n2c(/C=C/c3ccccc3)nc3ccccc3c2=O)cc1
- AC50 [1]: 5.95 µM (active)

SMILES: Cc1ccc(NC(=O)c2cc([N+](=O)[O-])ccc2NCc2cccnc2)cc1Cl
- AC50 (Cytochrome P450 2C9): 0.251 µM (inconclusive)
- EC50 [2]: 1.82 µM (active)
- EC50 [3]: > 60 µM (not active)
- AC50 (Cytochrome P450 2D6): 0.794 µM (inconclusive)

SMILES: COc1ccc(CCNC(=O)CCN2C(=O)COc3ccc(C)cc32)cc1OC
- AC50 (Cytochrome P450 2C9): 28.2 µM (inconclusive)
- AC50 (Cytochrome P450 2D6): 39.8 µM (inconclusive)

SMILES: CCc1ccc2c(c1)[C@H]1OCC[C@H]1[C@@H](c1cccs1)N2
- AC50 [4]: 2.97 µM (active)

SMILES: Brc1ccccc1OCCOCCOc1cccc2cccnc12
- AC50 (Cytochrome P450 2C9): 11.2 µM (inconclusive)
- AC50 (Cytochrome P450 3A4): 39.8 µM (inconclusive)
- AC50 (Cytochrome P450 2C19): 3.16 µM (inconclusive)

SMILES: NC(=O)C1CCN(C(=O)N2c3ccccc3Sc3ccccc32)CC1
- AC50 [1]: 10.8 µM (active)

SMILES: CCCSc1nc(SCC(=O)NCc2ccccc2)c2c3c(sc2n1)COC(C)(CC)C3 (configuration not stated)
- AC50 (Cytochrome P450 3A4): 7.08 µM (inconclusive)

SMILES: O=C(NCCc1ccccc1)c1cc(-c2ccccc2)c(N2CCOCC2)s1
- AC50 [4]: 3.48 µM (active)

SMILES: C/C(=N\Nc1nc2ccccc2[nH]1)c1cccs1
- AC50 [1]: 0.02 µM (active)
- IC50 [5]: 26.8 µM (active)

SMILES: COc1ccc(CSC2=C(C#N)C(=O)NC3(CCCCC3)S2)cc1
- AC50 (Cytochrome P450 2C9): 3.16 µM (inconclusive)

SMILES: C[C@H](C(=O)c1ccncc1)c1ccccn1
- AC50 (Cytochrome P450 3A4): 3.98 µM (inconclusive)

SMILES: CC(C)C[C@H](NC(=O)N1CCCCCC1)C(=O)N[C@H](Cc1cn(C)c2ccccc12)C(=O)N[C@H](Cc1ccccn1)C(=O)O
- AC50 (Cytochrome P450 1A2): 39.8 µM (inconclusive)
- AC50 (Cytochrome P450 3A4): 15.8 µM (inconclusive)

SMILES: CCc1cc2ccc(C)cc2nc1SCC(=O)c1ccc(NC(C)=O)cc1
- AC50 [4]: 3.68 µM (active)

SMILES: CCOc1ccc(OCc2cccc(C(=O)Nc3ccc(CN4CCCCC4)cc3)c2)cc1
- AC50 [4]: 5.46 µM (active)

SMILES: COc1ccc(C(=O)/C=C(/C)N(C)C)cc1
- AC50 (Cytochrome P450 3A4): 5.01 µM (inconclusive)
- AC50 (Cytochrome P450 2C19): 11.2 µM (inconclusive)

SMILES: COc1cc2c(c(OC)c1OC)-c1ccc(O)c(=O)cc1[C@H](N)CC2
- AC50 (Cytochrome P450 3A4): 3.16 µM (inconclusive)

SMILES: CN(C)c1ccc(C(C(=O)NC2CCCC2)N(C(=O)c2ccco2)C2CC2)cc1 (configuration not stated)
- AC50 [1]: 2.33 µM (active)

SMILES: CN(C)C(=O)c1ccc(-c2cncnc2Nc2ccccc2)cc1
- AC50 (Cytochrome P450 1A2): 31.6 µM (inconclusive)
- AC50 (Cytochrome P450 3A4): 5.01 µM (inconclusive)

SMILES: Cc1ccc(N2CC(C(=O)Nc3cc(C)on3)CC2=O)cc1 (configuration not stated)
- AC50 (Cytochrome P450 2C9): 11.2 µM (inconclusive)
- AC50 (Cytochrome P450 3A4): 22.4 µM (inconclusive)

SMILES: COc1cccc(-c2cc(C(F)(F)F)nc(N3CCN(c4ccccc4)CC3)n2)c1
- AC50 (Cytochrome P450 2C9): 0.631 µM (inconclusive)

SMILES: O=C1N/C(=C\c2ccc(N3CCOCC3)c(F)c2)C(=O)N1Cc1ccccc1
- AC50 (Cytochrome P450 1A2): 2 µM (inconclusive)
- AC50 (Cytochrome P450 3A4): 0.794 µM (inconclusive)

SMILES: CCN1/C(=C2/SC(=S)NC2=O)Sc2ccccc21
- AC50 [1]: 2.18 µM (active)

SMILES: O=C(O)c1cc2ccccc2cc1Nc1ccccc1
- AC50 [1]: 1.49 µM (active)

SMILES: CC(=O)N1CCC2(CCCN(Cc3nccs3)C2)CC1
- AC50 (Cytochrome P450 3A4): 39.8 µM (inconclusive)
- AC50 (Cytochrome P450 2D6): 15.8 µM (inconclusive)

SMILES: COC(=O)c1sccc1-c1ccc(C(=O)Nc2cccc(Cl)c2)o1
- AC50 (Cytochrome P450 3A4): 28.2 µM (inconclusive)

SMILES: Cc1ccc(CSc2nnc(-c3ccncc3)n2CC2CCCO2)cc1 (configuration not stated)
- AC50 (Cytochrome P450 3A4): 1.41 µM (inconclusive)

SMILES: COc1ccc(CNc2ncnc3ccc(-c4cccc(C#N)c4)cc23)c(OC)c1
- AC50 (Cytochrome P450 2C9): 0.0158 µM (inconclusive)

SMILES: COc1ccc(-c2[nH]c(-c3ccc(C(=O)O)cc3)nc2-c2ccccc2)cc1
- AC50 (Cytochrome P450 1A2): 28.2 µM (inconclusive)
- AC50 [1]: 3.94 µM (active)
- AC50 (Cytochrome P450 2C19): 39.8 µM (inconclusive)

SMILES: CC/C(=C\C1CCCCC1)C(NP(=O)(c1ccccc1)c1ccccc1)c1ccccc1 (configuration not stated)
- EC50 (Streptococcus): 2.26 µM (active)
- EC50 [6]: 1.68 µM (active)
- AC50 [4]: 2.58 µM (active)

SMILES: O=C(O)CC/C(=N\Nc1ccccc1[N+](=O)[O-])c1cccs1
- AC50 [1]: 2.73 µM (active)

SMILES: CN1CC(=O)N(CC(=O)Nc2ccc(SC(F)F)cc2)C1=O
- AC50 [1]: 0.477 µM (active)

SMILES: Cc1ccc(C)c(N(C)C(=O)c2coc(=O)c3ccccc23)c1
- EC50 [7]: > 300 µM (not active)
- EC50 [8]: > 300 µM (not active)

SMILES: Cn1c(N)c(C(=O)CSc2ccc3c(c2)OCCO3)c(=O)n(C)c1=O
- AC50 (Cytochrome P450 2C9): 39.8 µM (inconclusive)

SMILES: COc1ccc(C(C(=O)NC2CCCCC2)N(C(=O)CCCC(=O)Nc2ccccn2)c2ccc3c(c2)OCCO3)cc1 (configuration not stated)
- AC50 (Cytochrome P450 2C9): 14.1 µM (inconclusive)
- AC50 (Cytochrome P450 2C19): 7.94 µM (inconclusive)

SMILES: Cn1c(S)nnc1CSCc1ccc(Cl)cc1
- AC50 [1]: 8.71 µM (active)

SMILES: COc1ccc(CNc2ccnc(-c3c(C)noc3C)n2)c(OC)c1
- AC50 (Cytochrome P450 2C9): 1 µM (inconclusive)
- AC50 (Cytochrome P450 2D6): 39.8 µM (inconclusive)

SMILES: C=CCc1cccc(CNc2nc3ccccc3n2CCC)c1O
- AC50 [4]: 7.58 µM (active)

SMILES: CN1CCCC(CN2c3ccccc3Sc3ccccc32)C1 (configuration not stated) [MEPAZINE ACETATE]
- AC50 [1]: 0.098 µM (active)

SMILES: COc1ccccc1CCC(=O)OCc1csc(CC(=O)Nc2ccccc2C)n1
- EC50 [7]: > 300 µM (not active)
- EC50 [8]: > 300 µM (inconclusive)
